# From patent US20260262643A1, “HERBICIDAL BENZOXAZINES” (FMC CORPORATION, priority 2022, published 2026)
# How the values were obtained:
# barnyardgrass [1] = test: Test C postemergence; assay type: in vivo, Echinochloa crusgalli; conditions: 10 days
# Summary of the method: (§1)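 Visual injury score, 0–100 (100 = complete control), taken 10 days after treatment relative to untreated controls. Pre: directed spray onto soil over sown seeds. Post: foliar spray at one- to two-leaf stage, 2–10 cm. Solvent/surfactant formulation; loam–sand soil; greenhouse.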
# blackgrass [2] = test: Test C preemergence; assay type: in vivo, Alopecurus myosuroides; conditions: for Plant response rating, Blackgrass: Preemergence; for Blackgrass plant response rating: preemergence
# Summary of the method: as §1
# oat, wild [3] = test: Test C preemergence; assay type: in vivo, Avena fatua; conditions: for Plant response rating, Oat, Wild: Preemergence; for Oat, Wild plant response rating: preemergence
# Summary of the method: as §1
# sedge, umbrella = test: Test D flooded paddy test; assay type: in vivo, Cyperus difformis; conditions: 250 g ai/ha, applied to paddy water, visual rating after 13 to 14 days, scale 0 to 100 (0 no effect, 100 complete control)
# Summary of the method: (§2)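 Visual ratings from 0, meaning no effect, to 100, meaning complete control, were assigned against untreated controls 13 to 14 days after compounds were added to the floodwater of pots kept 3 cm deep, with plants at the 2-leaf stage.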
# wheat [4] = test: Test C preemergence; assay type: in vivo, Triticum aestivum; conditions: for Plant response rating, Wheat: Preemergence; for Wheat plant response rating: preemergence
# Summary of the method: as §1
# ryegrass, Italian [5] = test: Test C preemergence; assay type: in vivo, Lolium multiflorum; conditions: for Plant response rating, Ryegrass, Italian: Preemergence; for Ryegrass, Italian plant response rating: preemergence
# Summary of the method: as §1
# green foxtail [6] = test: Test C postemergence; assay type: in vivo, Setaria viridis; conditions: 10 days
# Summary of the method: as §1
# galium = test: Test C postemergence; assay type: in vivo, Galium aparine; conditions: 10 days
# Summary of the method: as §1
# barnyardgrass [7] = test: Test C preemergence; assay type: in vivo, Echinochloa crusgalli; conditions: for Plant response rating, Barnyardgrass: Preemergence; for Barnyardgrass plant response rating: preemergence
# Summary of the method: as §1
# pigweed, palmer [8] = test: Test C postemergence; assay type: in vivo, Amaranthus palmeri; conditions: 10 days
# Summary of the method: as §1
# oat, wild [9] = test: Test C postemergence; assay type: in vivo, Avena fatua; conditions: 10 days
# Summary of the method: as §1
# kochia [10] = test: Test C preemergence; assay type: in vivo, Bassia scoparia; conditions: for Plant response rating, Kochia: Preemergence; for Kochia plant response rating: preemergence
# Summary of the method: as §1
# ragweed [11] = test: Test C postemergence; assay type: in vivo, Ambrosia artemisiifolia; conditions: 10 days
# Summary of the method: as §1
# rice = test: Test D flooded paddy test; assay type: in vivo, Oryza sativa; conditions: 250 g ai/ha, applied to paddy water, visual rating after 13 to 14 days, scale 0 to 100 (0 no effect, 100 complete control)
# Summary of the method: as §2
# ducksalad = test: Test D flooded paddy test; assay type: in vivo, Heteranthera limosa; conditions: 250 g ai/ha, applied to paddy water, visual rating after 13 to 14 days, scale 0 to 100 (0 no effect, 100 complete control)
# Summary of the method: as §2
# ryegrass, Italian [12] = test: Test C postemergence; assay type: in vivo, Lolium multiflorum; conditions: 10 days
# Summary of the method: as §1
# ragweed [13] = test: Test C preemergence; assay type: in vivo, Ambrosia artemisiifolia; conditions: for Plant response rating, Ragweed: Preemergence; for Ragweed plant response rating: preemergence
# Summary of the method: as §1
# barnyardgrass [14] = test: Test D flooded paddy test; assay type: in vivo, Echinochloa crus-galli; conditions: 250 g ai/ha, applied to paddy water, visual rating after 13 to 14 days, scale 0 to 100 (0 no effect, 100 complete control)
# Summary of the method: as §2
# horseweed = test: Test C postemergence; assay type: in vivo, Erigeron canadensis; conditions: 10 days
# Summary of the method: as §1
# wheat [15] = test: Test C postemergence; assay type: in vivo, Triticum aestivum; conditions: 10 days
# Summary of the method: as §1
# soybean [16] = test: Test C postemergence; assay type: in vivo, Glycine max; conditions: 10 days
# Summary of the method: as §1
# corn [17] = test: Test C preemergence; assay type: in vivo, Zea mays; conditions: for Plant response rating, Corn: Preemergence; for Corn plant response rating: preemergence
# Summary of the method: as §1
# green foxtail [18] = test: Test C preemergence; assay type: in vivo, Setaria viridis; conditions: for Plant response rating, Foxtail, Green: Preemergence; for Foxtail, Green plant response rating: preemergence
# Summary of the method: as §1
# blackgrass [19] = test: Test C postemergence; assay type: in vivo, Alopecurus myosuroides; conditions: 10 days
# Summary of the method: as §1
# soybean [20] = test: Test C preemergence; assay type: in vivo, Glycine max; conditions: for Plant response rating, Soybean: Preemergence; for Soybean plant response rating: preemergence
# Summary of the method: as §1
# kochia [21] = test: Test C postemergence; assay type: in vivo, Bassia scoparia; conditions: 10 days
# Summary of the method: as §1
# pigweed, palmer [22] = test: Test C preemergence; assay type: in vivo, Amaranthus palmeri; conditions: for Plant response rating, Pigweed, Palmer: Preemergence
# Summary of the method: as §1
# corn [23] = test: Test C postemergence; assay type: in vivo, Zea mays; conditions: 10 days
# Summary of the method: as §1
# [24] = 125 g ai/ha, postemergence, 0 to 100 scale, 0 no effect, 100 complete control
# [25] = Postemergence, 500 g ai/ha, visual 0 to 100 scale (0 no effect, 100 complete control)
# [26] = 500 g ai/ha, visual rating after 10 days, 0 to 100 scale (0 no effect, 100 complete control)
# [27] = Test C, 125 g ai/ha, 0 to 100 scale (0 no effect, 100 complete control)
# [28] = 500 g ai/ha, postemergence, 0 to 100 scale (0 no effect, 100 complete control)
# [29] = Postemergence, 125 g ai/ha, 0 to 100 scale (0 no effect, 100 complete control)
# [30] = 500 g ai/ha, 0 to 100 scale (0 no effect, 100 complete control)
# [31] = 125 g ai/ha, 0 to 100 scale, 0 no effect, 100 complete control
structure (smiles),measurement,setting,value
Cc1cccc2c1O[C@H](C)CN2C(=O)c1cccc(-c2ncn(C(C)C)n2)c1 [Compound 221],"Plant response rating, Barnyardgrass",barnyardgrass [1]; [24],0
same,"Plant response rating, Barnyardgrass",barnyardgrass [1]; [25],10
same,"Plant response rating, Blackgrass",blackgrass [2]; [26],0
same,Blackgrass plant response rating,blackgrass [2]; [27],0
same,"Plant response rating, Oat, Wild","oat, wild [3]; [26]",0
same,"Oat, Wild plant response rating","oat, wild [3]; [27]",0
same,"Plant response rating, Sedge, Umbrella (Flood)","sedge, umbrella",0
same,"Plant response rating, Wheat",wheat [4]; [26],0
same,Wheat plant response rating,wheat [4]; [27],0
same,"Plant response rating, Ryegrass, Italian","ryegrass, Italian [5]; [26]",0
same,"Ryegrass, Italian plant response rating","ryegrass, Italian [5]; [27]",0
same,"Plant response rating, Foxtail, Green",green foxtail [6]; [24],0
same,"Plant response rating, Foxtail, Green",green foxtail [6]; [25],0
same,"Plant response rating, Galium",galium; [24],0
same,"Plant response rating, Galium",galium; [25],0
same,"Plant response rating, Barnyardgrass",barnyardgrass [7]; [26],0
same,Barnyardgrass plant response rating,barnyardgrass [7]; [27],0
same,"Plant response rating, Pigweed, Palmer","pigweed, palmer [8]; [24]",0
same,"Plant response rating, Pigweed, Palmer","pigweed, palmer [8]; [25]",0
same,"Plant response rating, Oat, Wild","oat, wild [9]; [24]",0
same,"Plant response rating, Oat, Wild","oat, wild [9]; [25]",0
same,"Plant response rating, Kochia",kochia [10]; [26],0
same,Kochia plant response rating,kochia [10]; [27],0
same,"Plant response rating, Ragweed",ragweed [11]; [24],0
same,"Plant response rating, Ragweed",ragweed [11]; [25],0
same,"Plant response rating, Rice (Flood)",rice,0
same,"Plant response rating, Ducksalad (Flood)",ducksalad,0
same,"Plant response rating, Ryegrass, Italian","ryegrass, Italian [12]; [24]",0
same,"Plant response rating, Ryegrass, Italian","ryegrass, Italian [12]; [25]",0
same,"Plant response rating, Ragweed",ragweed [13]; [26],0
same,Ragweed plant response rating,ragweed [13]; [27],0
same,"Plant response rating, Barnyardgrass (Flood)",barnyardgrass [14],0
same,"Plant response rating, Horseweed",horseweed; [24],0
same,"Plant response rating, Horseweed",horseweed; [25],20
same,"Plant response rating, Wheat",wheat [15]; [24],0
same,"Plant response rating, Wheat",wheat [15]; [25],0
same,"Plant response rating, Soybean",soybean [16]; [24],0
same,"Plant response rating, Soybean",soybean [16]; [25],0
same,"Plant response rating, Corn",corn [17]; [26],0
same,Corn plant response rating,corn [17]; [27],0
same,"Plant response rating, Foxtail, Green",green foxtail [18]; [26],0
same,"Foxtail, Green plant response rating",green foxtail [18]; [27],0
same,"Plant response rating, Blackgrass",blackgrass [19]; [24],0
same,"Plant response rating, Blackgrass",blackgrass [19]; [25],0
same,"Plant response rating, Soybean",soybean [20]; [26],0
same,Soybean plant response rating,soybean [20]; [27],0
same,"Plant response rating, Kochia",kochia [21]; [24],0
same,"Plant response rating, Kochia",kochia [21]; [25],0
same,"Plant response rating, Pigweed, Palmer","pigweed, palmer [22]; [26]",0
same,"Plant response rating, Corn",corn [23]; [24],0
same,"Plant response rating, Corn",corn [23]; [25],0
CCOC[C@H]1CN(C(=O)c2cc(-n3cnc(C(C)(C)C)n3)ccc2C)c2cccc(Cl)c2O1 [Compound 413],"Plant response rating, Barnyardgrass",barnyardgrass [1]; [28],40
same,"Plant response rating, Barnyardgrass",barnyardgrass [1]; [29],20
same,Blackgrass plant response rating,blackgrass [2]; [30],60
same,"Plant response rating, Blackgrass",blackgrass [2]; [31],30
same,"Oat, Wild plant response rating","oat, wild [3]; [30]",0
same,"Plant response rating, Oat, Wild","oat, wild [3]; [31]",0
same,"Plant response rating, Sedge, Umbrella (Flood)","sedge, umbrella",45
same,Wheat plant response rating,wheat [4]; [30],0
same,"Plant response rating, Wheat",wheat [4]; [31],0
same,"Ryegrass, Italian plant response rating","ryegrass, Italian [5]; [30]",100
same,"Plant response rating, Ryegrass, Italian","ryegrass, Italian [5]; [31]",80
same,"Plant response rating, Foxtail, Green",green foxtail [6]; [28],60
same,"Plant response rating, Foxtail, Green",green foxtail [6]; [29],10
same,"Plant response rating, Galium",galium; [28],100
same,"Plant response rating, Galium",galium; [29],90
same,Barnyardgrass plant response rating,barnyardgrass [7]; [30],90
same,"Plant response rating, Barnyardgrass",barnyardgrass [7]; [31],50
same,"Plant response rating, Pigweed, Palmer","pigweed, palmer [8]; [28]",100
same,"Plant response rating, Pigweed, Palmer","pigweed, palmer [8]; [29]",100
same,"Plant response rating, Oat, Wild","oat, wild [9]; [28]",10
same,"Plant response rating, Oat, Wild","oat, wild [9]; [29]",0
same,Kochia plant response rating,kochia [10]; [30],80
same,"Plant response rating, Kochia",kochia [10]; [31],10
same,"Plant response rating, Ragweed",ragweed [11]; [29],70
same,"Plant response rating, Rice (Flood)",rice,10
same,"Plant response rating, Ducksalad (Flood)",ducksalad,15
same,"Plant response rating, Ryegrass, Italian","ryegrass, Italian [12]; [29]",40
same,Ragweed plant response rating,ragweed [13]; [30],70
same,"Plant response rating, Ragweed",ragweed [13]; [31],60
same,"Plant response rating, Barnyardgrass (Flood)",barnyardgrass [14],35
same,"Plant response rating, Horseweed",horseweed; [28],60
same,"Plant response rating, Horseweed",horseweed; [29],10
same,"Plant response rating, Wheat",wheat [15]; [29],10
same,"Plant response rating, Soybean",soybean [16]; [29],100
same,Corn plant response rating,corn [17]; [30],10
same,"Plant response rating, Corn",corn [17]; [31],0
same,"Foxtail, Green plant response rating",green foxtail [18]; [30],100
same,"Plant response rating, Foxtail, Green",green foxtail [18]; [31],80
same,"Plant response rating, Blackgrass",blackgrass [19]; [28],20
same,"Plant response rating, Blackgrass",blackgrass [19]; [29],20
same,Soybean plant response rating,soybean [20]; [30],100
same,"Plant response rating, Soybean",soybean [20]; [31],70
same,"Plant response rating, Kochia",kochia [21]; [28],90
same,"Plant response rating, Kochia",kochia [21]; [29],90
same,"Pigweed, Palmer plant response rating","pigweed, palmer [22]; 500 g ai/ha, preemergence, 0 to 100 scale (0 no effect, 100 complete control)",100
same,"Plant response rating, Pigweed, Palmer","pigweed, palmer [22]; [31]",90
same,"Plant response rating, Corn",corn [23]; [28],20
same,"Plant response rating, Corn",corn [23]; [29],10
